Assay results: patent US20060194826A1, “Pharmaceutical combinations of hydrocodone and naltrexone” (EURO-CELTIQUE S.A., priority 2003, published 2006)
Entries after “also recorded” stand apart in the source; their conditions may differ.

Legend:
[1] = tested on: normal, healthy, adult male and female volunteers; assay: Safety assessment (Example 5)
Experimental: (§1) In Example 5, a single center, placebo controlled, double-blind, randomized 9-treatment, 3 period crossover trial with an open-label screening phase was conducted.

[2] = tested on: subjects receiving methadone maintenance therapy; assay: Double-blind crossover, subjective and physiologic opioid agonist/antagonist measures (Example 6)
[3] = tested on: subjects on methadone maintenance therapy; assay: Open-label naltrexone titration safety assessment (Example 6); format: in vivo, human; conditions: 2 subjects, 30 mg hydrocodone at 0 hr, naltrexone at hourly intervals, oral
Experimental: Example 6 consisted of open-label and double-blind treatment phases conducted in male and female subjects receiving daily oral methadone maintenance doses from 60 to 90 mg. The methadone maintenance dose was given to the subject the day before each scheduled period. Administration of study medication occurred no sooner than 16 hours and no later than 22 hours after the methadone maintenance dose was given. 14 subjects were enrolled in the study (2 subjects, open-label phase (ascending dose naltrexone safety assessment) and 12 subjects, double-blind phase).
The open-label phase was a safety assessment of the 2 naltrexone doses (0.75 and 2.0 mg) planned in the protocol in subjects on methadone maintenance therapy. This phase of the study consisted of a screening visit conducted up to 14 days before administration of study drug, and a naltrexone titration visit. During the naltrexone titration visit, 2 subjects were to receive 30 mg of hydrocodone and 0.125 mg of naltrexone at 0 hr, with additional doses of naltrexone, up to a cumulative dose of 2.0 mg, administered at hourly intervals over the next 4 hours. In the open-label phase, neither subject received more than a 1.0-mg cumulative dose of naltrexone before rescue with methadone was required. […]

[4] = tested on: healthy volunteers with hyperalgesia; assay: Thermal Discomfort and Pain Latency testing (Example 7); format: in vivo, human
Experimental: (§2) Example 7 consisted of a single center trial conducted as a placebo-controlled, double-blind, randomized, 4-treatment, 4-period crossover study, which included a single-blind phase. Each treatment sequence consisted of 4 treatment periods, each of 4 hours duration, separated by at least a 5-day washout interval. […] The total duration of this study, including screening, was approximately 52 days.
(§3) After at least 5 days, those subjects who successfully completed the single-blind phase were randomized into the double-blind phase of the study. Healthy male and female volunteers were enrolled in this study.
A test site and a control site were selected on each forearm and marked with a washable marker. Next, the topical anesthetic was applied to the test site. After approximately 1.5 hours (allowing for the anesthetic to take effect), the cream was removed and a thermal stimulus was applied to the test site for 3 minutes using a copper mass heated to 52° C. […]
Thermal Discomfort testing was designed to measure a subject's perception of discomfort following a 5-second contact with a warmed 1″ diameter copper mass (Uniformed Services University of the Health Sciences, Bethesda, Md.). […] The distance from the left anchor to the vertical mark was measured and was used as the quantitative measure of Thermal Discomfort. […]

[5] = tested on: subjects receiving methadone maintenance therapy; assay: Safety measures, double-blind phase (Example 6); format: in vivo, human; conditions: with increasing NTX dose; most mild or moderate
[6] = tested on: healthy volunteers with hyperalgesia; assay: Pupillometry (Example 7); format: in vivo, human
Experimental: Each treatment sequence consisted of 4 treatment periods, each of 4 hours duration, separated by at least a 5-day washout interval. […] The total duration of this study, including screening, was approximately 52 days.
as §3
(§4) The same test measurements conducted at baseline were then conducted at 0.5, 1, 2, 3, and 4 hours postdosing. Thermal Discomfort and Pain Latency testing were conducted at each time point on the control site (area on the other forearm, which was not subjected to the thermal stimulus). Testing on the control site was done prior to the test site for each time point. Each subject rested and recovered for no less than 5 days before returning for the next period. In the follow-up phase, subjects returned to the clinic within 7 days after completion of the study for a final check of the test site and a review of the subject's laboratory data prior to official discharge from the study.
Pupillometry was performed to measure the effect of the study treatment on pupil diameter. The pupil was photographed using a Polaroid One-Step Closeup Camera (Polaroid Corporation, Cambridge, Mass.) with modified 2× magnification oculars (John Hopkins University, Baltimore, Md.) and Polaroid 600 color film (Polaroid Corporation, Cambridge, Mass.). […] The camera was positioned on the subject's eye socket, aligning the iris with the middle of the opening of the lens adapter. The pupil diameter was measured from the photograph, in millimeters, using Model CD-6C Mitutoyo digital calipers (Judge Tool Sales, Southport, Conn.). The same eye was measured at all times for each subject.

[7] = tested on: healthy volunteers with hyperalgesia; assay: Subjective Symptom Rating Scale and Drug Rating Questionnaire (Example 7); format: in vivo, human
Experimental: as §2, §3, §4
The Symptom Rating Scale Questionnaire consisted of 25 items. […]

[8] = tested on: minute ventilation in normal, healthy, adult male and female volunteers; assay: CO2 rebreathing test, double-blind crossover trial (Example 5); format: in vivo, human; conditions: oral NTX 0.125 to 8.0 mg with 15, 20 or 25 mg oral HYIR
Experimental: as §1

healthy volunteers = assay: Safety and adverse events (Example 7); format: in vivo, human
Experimental: as §2
An AE (adverse event) was defined as any unfavorable and unintended sign (including abnormal laboratory findings), symptom or disease temporally associated with the use of a medicinal product, whether or not considered related to the medicinal product. An AE was classified as a TEAE (treatment emergent adverse event) only if the AE occurred after the first dose of the study drug was administered to a subject who was enrolled in the study. The period of observation for TEAEs was from the time that the first dose of study medication was administered until release from the study after completion of period 4 or at early discontinuation. All AEs reported by the subject or observed by the investigator/study staff were fully documented throughout the study. When AEs were encountered that required medical intervention, appropriate supportive and/or definitive therapy was provided by appropriately qualified and licensed medical personnel. […]

[9] = 0.25-mg NTX dose with 30 mg HYIR
[10] = 0.5-mg NTX dose with 30 mg HYIR

COc1ccc2c3c1O[C@H]1C(=O)CC[C@H]4[C@@H](C2)N(C)CC[C@]314.O=C(O)C(O)C(O)C(=O)O [HYIR, Hydrocodone bitartrate]
safety concerns ([1]; 15-, 20-, or 25-mg doses of HYIR): no new safety concerns | changes from predose in all pharmacodynamic variables ([2]; 30 mg HYIR plus NTX placebo): minimal changes from predose | subjects requiring a rescue dose of methadone ([2]; 30 mg HYIR plus NTX placebo): 4 of the 12 | subjective or physiologic opioid agonist activity ([2]; 30-mg oral dose of HYIR): did not produce significant subjective or physiologic opioid agonist activity | trend of treatment means (PDmax and AUC) over the 3 periods, FIGS. 1-12 ([2]; HYIR+NTX placebo treatment): increase in subjective and physiologic opioid agonist effects

O=C1CC[C@@]2(O)[C@H]3Cc4ccc(O)c5c4[C@@]2(CCN3CC2CC2)[C@H]1O5 [NTX, Naltrexone HCI]
safety concerns ([1]; NTX 0.125 to 8.0 mg combined with 15, 20 or 25 mg HYIR): no new safety concerns | cumulative dose of naltrexone received before rescue with methadone was required [3]: ≤ 1.0 mg | difference vs HYIR+placebo NTX in mean Thermal Discomfort VAS scores, Pain Latency, derived pharmacodynamic metrics of hyperalgesia ([4]; 15 mg HYIR + 0.25-, 0.5-, or 1.0-mg NTX, oral): no statistically significant differences | reduction of the analgesia produced by 15 mg oral HYIR (Thermal Discomfort VAS scores and Pain Latency testing) ([4]; NTX 0.25, 0.5, or 1.0-mg): None of the doses of NTX used in this study (0.25, 0.5, or 1.0-mg) produced a statistically significant reduction | treatment-emergent adverse events commonly associated with opioid withdrawal per subject [5]: increase in the number of treatment-emergent adverse events | statistically significant increase in pupil diameter PDmax compared with HYIR+placebo NTX ([6]; HYIR+0.5 mg NTX and HYIR+1.0-mg NTX): not | NTX dose-related effect on the physiologic opioid agonist activity of the 15-mg dose of HYIR ([6]; NTX 0.25, 0.5, 1.0 mg): no consistent NTX dose-related effect | HYIR-induced pupil constriction ([6]; all NTX doses (0.25, 0.5, 1.0 mg) with 15 mg HYIR): reduced HYIR-induced pupil constriction | aversive effects in methadone-maintained subjects ([2]; 0.25- and 0.5-mg oral NTX doses): elicit aversive effects | negative feeling states and antagonist activity (precipitated withdrawal) [2, 9]: threshold dose with a trend toward negative feeling states | subjects requiring a rescue dose of methadone [2, 9]: Approximately 60% | difference from NTX placebo treatment in mean PDmax, all queries except "Feeling sick" [2, 10]: statistically significant differences | precipitated withdrawal (Drug Effects Scales, antagonist total score, pupil diameter vs NTX placebo) [2, 10]: strong evidence of precipitated withdrawal | subjects requiring a rescue dose of methadone [2, 10]: ~90% | negative feeling states and precipitated withdrawal, dose dependence ([2]; NTX 0.25 and 0.5 mg with 30 mg HYIR): dose-dependent increases in negative feeling states and precipitated withdrawal | effect on all secondary pharmacodynamic variables except the agonist total scores from the Subjective and Observer Symptom Rating Scales ([2]; NTX 0.25 and 0.5 mg with 30 mg HYIR, not always statistically significant): dose-related effect | effect on mean PDmax values for all 4 queries on the Subjective Drug Effects Scale ([2]; NTX 0.25 to 0.5 mg with 30 mg HYIR): dose-related effect | appeal and abuse liability potential of HYIR ([2]; low dose NTX added to HYIR, subjects physically dependent on opioids): decreased the appeal | subjective opioid agonist effects of HYIR (Subjective Symptom Rating Scale and Subjective Drug Rating Questionnaire) ([7]; 15 mg HYIR with placebo, 0.25, 0.5 or 1.0 mg NTX): no statistically significant differences among the treatments or consistent NTX dose-related trends | NTX dose-related effect on the subjective opioid agonist activity of the 15-mg dose of HYIR ([7]; NTX 0.25, 0.5, 1.0 mg): no consistent NTX dose-related effect | effect on HYIR-induced respiratory depression (% MPE20, % MPE30, double-blind MPE20 and MPE30) [8]: statistically significant trend toward less respiratory depression; also recorded: blocked respiratory depression | number of reported TEAEs commonly associated with opioid use (healthy volunteers; 15 mg HYIR with increasing NTX dose): decreased with increased NTX dose | safety concerns (healthy volunteers; 15 mg of oral HYIR combined with 0.25, 0.5, or 1.0-mg NTX): no safety concerns
